Experimental data taken from PubChem BioAssay AID248 (DTP/NCI, 2004).
“And” between values parts separate entries of the source, which are not always exact repeats. Equal entries are not always repeated. Inconclusive results and toxic doses are left out. Rule as the data show it: active = T/C of 150% or more; inactive = T/C below 125%.

System: L1210 leukemia ip in BDF1 mice, survival T/C
Assay: NCI In Vivo Anticancer Drug Screen. Data for tumor model L1210 Leukemia (intraperitoneal) in B6D2F1 (BDF1) mice
Settings: endpoint: mean survival time, higher = longer survival
In short: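 Value reflects the ratio of survival in compound-treated mice to survival in vehicle-treated controls, with both groups carrying the same transplanted tumor.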

[1] = dose: 75.0 mg/kg/injection, schedule: Q01DX001 (ip), vehicle: saline
[2] = dose: 150.0 mg/kg/injection, schedule: Q01DX001 (ip), vehicle: saline
[3] = dose: 100.0 mg/kg/injection, schedule: Q01DX001 (ip), vehicle: saline with Tween-80
[4] = dose: 50.0 mg/kg/injection, schedule: Q01DX001 (ip), vehicle: saline
[5] = dose: 100.0 mg/kg/injection, schedule: Q01DX001 (ip), vehicle: saline
[6] = dose: 200.0 mg/kg/injection, schedule: Q01DX001 (ip), vehicle: saline
[7] = dose: 400.0 mg/kg/injection, schedule: Q01DX001 (ip), vehicle: saline
[8] = dose: 12.5 mg/kg/injection, schedule: Q01DX009 (ip), vehicle: saline
[9] = dose: 12.5 mg/kg/injection, schedule: Q04DX003 (ip), vehicle: saline
[10] = dose: 25.0 mg/kg/injection, schedule: Q01DX009 (ip), vehicle: saline
[11] = dose: 25.0 mg/kg/injection, schedule: Q04DX003 (ip), vehicle: saline
[12] = dose: 50.0 mg/kg/injection, schedule: Q01DX009 (ip), vehicle: Klucel (hydroxypropylcellulose) (HPC)
[13] = dose: 50.0 mg/kg/injection, schedule: Q04DX003 (ip), vehicle: saline
[14] = dose: 100.0 mg/kg/injection, schedule: Q01DX009 (ip), vehicle: Klucel (hydroxypropylcellulose) (HPC)
[15] = dose: 100.0 mg/kg/injection, schedule: Q04DX003 (ip), vehicle: Klucel (hydroxypropylcellulose) (HPC)
[16] = dose: 200.0 mg/kg/injection, schedule: Q04DX003 (ip), vehicle: Klucel (hydroxypropylcellulose) (HPC)
[17] = dose: 100.0 mg/kg/injection, schedule: Q04DX002 (ip), vehicle: Klucel (hydroxypropylcellulose) (HPC)
[18] = dose: 400.0 mg/kg/injection, schedule: Q04DX003 (ip), vehicle: Klucel (hydroxypropylcellulose) (HPC)

Measured: T/C

CC1CCC(C)OCO1 (stereo not given)
inactive: dose: 50.0 mg/kg/injection, schedule: Q01DX009 (ip), vehicle: acetone 97 % of control | dose: 100.0 mg/kg/injection, schedule: Q01DX009 (ip), vehicle: acetone 98 % of control | dose: 200.0 mg/kg/injection, schedule: Q01DX009 (ip), vehicle: acetone 88 % of control

CCCCCC(=O)NC1CCCCC1
inactive: [1] 89 % of control | [2] 89 % of control

O=Cc1[nH]c(=S)[nH]c(=O)c1Cc1c(Cl)cccc1Cl
inactive: [3] 101 % of control | dose: 200.0 mg/kg/injection, schedule: Q01DX001 (ip), vehicle: saline with Tween-80 101 % of control | dose: 400.0 mg/kg/injection, schedule: Q01DX001 (ip), vehicle: saline with Tween-80 106 % of control

OC1Cn2cc(Br)c[n+]2C1 (stereo not given)
inactive: [4] 94 % of control | [5] 116 % of control | [6] 102 % of control | [7] 96 % of control

COc1ccc2c3csc4ccccc4c-3nc2c1
inactive: [8] 98 % of control | [9] 95 % of control | dose: 25.0 mg/kg/injection, schedule: Q01DX009 (ip), vehicle: Klucel (hydroxypropylcellulose) (HPC) 111 % of control | [10] 98 % of control | [11] 95 % of control | [12] 100 % of control | [13] 94 % of control

NC(=O)c1cc(Cl)cc(Cl)c1N1CC[N+](CCCl)=N1
inactive: [3] 103 % of control

Oc1ccccc1/C=N/Nc1ccc2ccccc2n1
inactive: dose: 75.0 mg/kg/injection, schedule: Q01DX001 (ip), vehicle: saline with Tween-80 93 % of control | dose: 150.0 mg/kg/injection, schedule: Q01DX001 (ip), vehicle: saline with Tween-80 90 % of control | dose: 300.0 mg/kg/injection, schedule: Q01DX001 (ip), vehicle: saline with Tween-80 93 % of control

COC(=O)c1ccccc1NC(=O)Nc1ccccc1Cl
inactive: [12] 88 % of control | [14] 88 % of control | [15] 89 % of control | [16] 92 % of control

O=S(=O)(ON=C(c1ccc(Cl)cc1)c1ccc(Cl)cc1)c1ccccc1
inactive: dose: 100.0 mg/kg/injection, schedule: Q01DX009 (ip), vehicle: carboxymethylcellulose (CMC) 98 % of control | dose: 100.0 mg/kg/injection, schedule: Q04DX002 (ip), vehicle: carboxymethylcellulose (CMC) 101 % of control and 92 % of control | dose: 100.0 mg/kg/injection, schedule: Q04DX003 (ip), vehicle: carboxymethylcellulose (CMC) 106 % of control | dose: 200.0 mg/kg/injection, schedule: Q01DX009 (ip), vehicle: carboxymethylcellulose (CMC) 95 % of control and 92 % of control | dose: 200.0 mg/kg/injection, schedule: Q04DX002 (ip), vehicle: carboxymethylcellulose (CMC) 102 % of control and 111 % of control | dose: 200.0 mg/kg/injection, schedule: Q04DX003 (ip), vehicle: carboxymethylcellulose (CMC) 93 % of control | dose: 400.0 mg/kg/injection, schedule: Q01DX009 (ip), vehicle: carboxymethylcellulose (CMC) 95 % of control and 101 % of control | dose: 400.0 mg/kg/injection, schedule: Q04DX002 (ip), vehicle: carboxymethylcellulose (CMC) 95 % of control and 101 % of control | dose: 400.0 mg/kg/injection, schedule: Q04DX003 (ip), vehicle: carboxymethylcellulose (CMC) 93 % of control

CC1([N+](=O)[O-])COP(=O)(Nc2ccc(Br)cc2)OC1 (stereo not given)
inactive: [4] 93 % of control | [5] 98 % of control | [6] 104 % of control | [7] 122 % of control

CCOC(=O)/C(C#N)=C/c1cccn1Cc1cc2c(cc1[N+](=O)[O-])OCO2
inactive: dose: 25.0 mg/kg/injection, schedule: Q04DX002 (ip), vehicle: Klucel (hydroxypropylcellulose) (HPC) 104 % of control | dose: 50.0 mg/kg/injection, schedule: Q04DX002 (ip), vehicle: Klucel (hydroxypropylcellulose) (HPC) 100 % of control | [17] 100 % of control

O=C(NCC(O)CNC(=O)Nc1ccc(C2=NCC(O)CN2)cc1)Nc1ccc(C2=NCC(O)CN2)cc1 (stereo not given)
inactive: dose: 25.0 mg/kg/injection, schedule: Q01DX Z (ip), vehicle: carboxymethylcellulose (CMC) 100 % of control | dose: 50.0 mg/kg/injection, schedule: Q01DX Z (ip), vehicle: carboxymethylcellulose (CMC) 108 % of control | dose: 100.0 mg/kg/injection, schedule: Q01DX Z (ip), vehicle: carboxymethylcellulose (CMC) 121 % of control

COC(=O)C12C(=CCP1(C)=O)C(c1ccccc1)=NN2c1ccccc1 (stereo not given)
inactive: dose: 12.5 mg/kg/injection, schedule: Q04DX002 (ip), vehicle: saline with Tween-80 92 % of control | dose: 25.0 mg/kg/injection, schedule: Q04DX002 (ip), vehicle: saline with Tween-80 95 % of control

CCn1c2ccccc2c2cc(C=O)ccc21
inactive: dose: 25.0 mg/kg/injection, schedule: Q01DX009 (ip), vehicle: other 95 % of control | dose: 50.0 mg/kg/injection, schedule: Q01DX009 (ip), vehicle: other 98 % of control and 106 % of control | dose: 100.0 mg/kg/injection, schedule: Q01DX009 (ip), vehicle: other 88 % of control | dose: 200.0 mg/kg/injection, schedule: Q01DX009 (ip), vehicle: other 94 % of control

CC(=O)Cc1nc(N)nc(Nc2ccc(Cl)c(Cl)c2)n1
inactive: dose: 100.0 mg/kg/injection, schedule: Q04DX003 (ip), vehicle: saline with Tween-80 91 % of control | dose: 200.0 mg/kg/injection, schedule: Q04DX003 (ip), vehicle: saline with Tween-80 96 % of control | dose: 400.0 mg/kg/injection, schedule: Q04DX003 (ip), vehicle: saline with Tween-80 96 % of control

CC([CH2][Hg][Cl])c1ccccc1 (stereo not given)
inactive: dose: 3.13 mg/kg/injection, schedule: Q01DX009 (ip), vehicle: saline with Tween-80 95 % of control | dose: 6.25 mg/kg/injection, schedule: Q01DX009 (ip), vehicle: saline with Tween-80 92 % of control | dose: 6.25 mg/kg/injection, schedule: Q04DX003 (ip), vehicle: Klucel (hydroxypropylcellulose) (HPC) 101 % of control | dose: 12.5 mg/kg/injection, schedule: Q01DX009 (ip), vehicle: saline with Tween-80 90 % of control | dose: 12.5 mg/kg/injection, schedule: Q04DX003 (ip), vehicle: Klucel (hydroxypropylcellulose) (HPC) 119 % of control

O=S1C=Cc2ccccc21 (stereo not given)
inactive: [17] 101 % of control | dose: 200.0 mg/kg/injection, schedule: Q04DX002 (ip), vehicle: Klucel (hydroxypropylcellulose) (HPC) 116 % of control | dose: 400.0 mg/kg/injection, schedule: Q04DX002 (ip), vehicle: Klucel (hydroxypropylcellulose) (HPC) 105 % of control

CCCCN(C)c1ncnc2[nH]ncc12
inactive: [4] 104 % of control | dose: 50.0 mg/kg/injection, schedule: Q01DX009 (ip), vehicle: saline 116 % of control | [13] 106 % of control | [5] 106 % of control | dose: 100.0 mg/kg/injection, schedule: Q04DX003 (ip), vehicle: saline 110 % of control | [6] 104 % of control | dose: 200.0 mg/kg/injection, schedule: Q04DX003 (ip), vehicle: saline 100 % of control

OCC1OC(n2ccc3c2ncn2nnnc32)C(O)C1O (stereo not given)
inactive: [8] 91 % of control | [9] 102 % of control | [10] 102 % of control | [11] 107 % of control | [13] 105 % of control

C/C(=C\c1ccccc1Cl)[N+](=O)[O-]
inactive: [14] 95 % of control | [15] 100 % of control | dose: 200.0 mg/kg/injection, schedule: Q01DX009 (ip), vehicle: Klucel (hydroxypropylcellulose) (HPC) 93 % of control | [16] 96 % of control | [18] 105 % of control

C[N+]1(CC2CO2)CCOCC1 (stereo not given)
inactive: [1] 109 % of control | [2] 106 % of control | dose: 300.0 mg/kg/injection, schedule: Q01DX001 (ip), vehicle: saline 96 % of control

CCOC(=O)C1(C(=O)OCC)CCC(O)N1C(=O)Cc1ccccc1[N+](=O)[O-] (stereo not given)
inactive: [15] 100 % of control | [16] 103 % of control | [18] 99 % of control

CCOC(=O)C1OC12c1cccc3cccc(c13)C21OC1C(=O)OCC (stereo not given)
inactive: dose: 100.0 mg/kg/injection, schedule: Q01DX009 (ip), vehicle: saline with Tween-80 92 % of control | dose: 200.0 mg/kg/injection, schedule: Q01DX009 (ip), vehicle: saline with Tween-80 90 % of control | dose: 400.0 mg/kg/injection, schedule: Q01DX009 (ip), vehicle: saline with Tween-80 98 % of control

O=C1NC(=S)S/C1=C\c1ccc([N+](=O)[O-])cc1
inactive: [5] 90 % of control
